Results: paper PMC11023993, “Piperine, quercetin, and curcumin identified as promising natural products for topical treatment of cutaneous leishmaniasis” (Parasitology Research, 2024)
Like-named read-outs stand apart in the source and are kept apart here.

Tests used:
[1] = MTT cytotoxicity assay in uninfected U-937 macrophages; conditions: human
Experimental: U-937 (CRL-1593.2™) macrophages (ATCC, Manassas, VA, USA) were cultured in RPMI-1640 medium supplemented with 10% of FBS and incubated at 37 °C in 5% CO2, 95% humidity atmosphere. U-937 cells in the exponential growth phase were recovered, and washed by centrifugation at 1800 rpm for 10 min at room temperature; the pellet was then resuspended in supplemented RPMI 1640 medium and counted in a Neubauer chamber. The number was adjusted to 1 × 10^6 cells per mL and 100 µL was dispensed into each well of a 96-well plate. Then, another 100 µL of each serial dilution of QUE, PIP, CUR, doxorubicin, and amphotericin B was added to each well by triplicate and plates were incubated at 37 °C 5% CO2, 95% humidity atmosphere for 48 h.
The MTT solution is then added to the treated cells, where the yellow MTT is reduced to purple formazan by a variety of mitochondrial and cytosolic enzymes that are operational in viable cells. After 3 h of incubation with MTT, the formazan precipitates. Consequently, the growing medium was removed, the formazan was dissolved in DMSO, and the absorbance of the solution was measured at 570 nm using a microplate reader spectrophotometer (Varioskan Flash, Thermo Fisher Scientific).
Cells exposed to the standard cytotoxic drug doxorubicin were used as an internal control for toxicity (positive control) while cells incubated in the absence of any compound or drug were used as a control for viability (negative control). A solution of 0.5% DMSO was used as a blank solution. Non-specific absorbance was corrected by subtracting absorbance (OD) of the blank. Determinations were done by triplicate in at least two independent experiments.
The OD of viable cells that remained after treatment was compared to the OD of control cells that were not exposed to the drug. The LC50 (median lethal concentration) values and their statistical errors were calculated based on triplicates of the measurement in the independent assays. The LC50 values were determined by non-linear regression using Prism GraphPad 10.
(§1) The LC50 and the EC50 were calculated by Probit analysis using GraphPad Prism 10 (San Diego, CA, USA). Both cytotoxicity and leishmanicidal activity were defined by ranges of values of LC50 and EC50 in terms of high, moderate, or low as follows: high cytotoxicity for LC50 values < 100 µM, moderate cytotoxicity for LC50 values > 100 µM but < 200 µM, and low cytotoxicity for LC50 values > 200 µM. […] In addition, the cytotoxicity in U937 macrophages was correlated with the leishmanicidal activity by calculating the Selectivity Index (SI), using the equation: SI = LC50/EC50 (Indrayanto et al. [2021]).

[2] = system: L. braziliensis amastigotes; set-up: method as in Dos Santos et al. [2022]; conditions: ref Dos Santos et al. [2022], read-out: antiamastigote activity EC50; cited from earlier work
[3] = system: intracellular amastigotes of L. braziliensis; assay: In vitro leishmanicidal activity against intracellular amastigotes in infected U-937 macrophages (flow cytometry); assay type: cell-based, Leishmania braziliensis; conditions: for EC50: Leishmania braziliensis
Experimental: Infective L. braziliensis (MHOM/CO/88/UA301-eGFP) (Pulido et al. [2012]) were cultured in Novy-MacNeal-Nicolle (NNN) biphasic medium at 26 °C for 3 passages maximum. U-937 cells, prepared as described in the previous section, were adjusted to approximately 3 × 10^5 cells per mL of supplemented RPMI 1640 medium containing […] of PMA to induce cell adherence. One mL was dispensed into each well of a 24-well plate and platters were incubated at 37 °C in % CO2, 95% humidity atmosphere for 72 h. Then, adherent cells were infected with fluorescent promastigotes of L. braziliensis in a 15:1 parasite to cell ratio. Plates were incubated again at 34 °C and % CO2, 95% humidity atmosphere. After 24 h, non-phagocytosed parasites were washed by pipetting phosphate buffered solution (PBS) in the plate at room temperature and 500 µL of fresh complete RPMI 1640 medium was added. Then, 500 µL of each serial dilution of QUE, PIP, CUR, and amphotericin B was added to each well and plates were incubated at 34 °C with % CO2, 95% humidity atmosphere. The EC50, the median effective concentration to induce […] killing of the intracellular amastigotes in infected cells, was measured by Flow cytometry at 488 nm of excitation and 525 nm of emission. After 48 h of incubation, cells were harvested with cold dissociation buffer (1x PBS with 2% EDTA) and the harvested cells were washed with buffer (1 × PBS with 2% FBS), and results were analyzed by FlowJo 10. The EC50 was determined with a non-lineal regression using Prism GraphPad 10.
as §1

L. braziliensis = conditions: n = 6
Text: Golden hamsters (Mesocricetus auratus) were purchased from Charles River Laboratories (Wilmington MA, USA) and bred under specific pathogen-free conditions at the animal facility unit of the Universidad de Antioquia in Medellín, Colombia. Six- to eight-week-old, male, and female hamsters were used for the experiments. Animal experimentation protocols including handling of the animals, sample collection, and euthanasia were done in compliance of the Center for Diseases Control and Prevention guidelines for Safe Work Practices in Human and Animal Medical Diagnostic Laboratories and ARRIVE guidelines (Percie du Sert et al. [2020b]; Khairani et al. [2022]) and approved by the Institutional Ethical Committee for animal experimentation (Act No. 152 of June 01, 2023) (Percie du Sert et al. [2020a]; Khairani et al. [2022]).
Hamsters were anesthetized with ketamine (80 mg/kg, i.p.) and xylazine (15 mg/Kg) before infection and then, ∼1 × 10^8 promastigotes in stationary phase (6 days-old growth) were inoculated into the dorsum dermis (Robledo et al. [2012]). When hamsters developed ulcers larger than 12.5 mm^2, hamsters were randomly distributed into 4 groups (n = 6, each): (1) group treated with QUE (1 mg/day), (2) group treated with PIP (2.5 mg/day), (3) group treated with CUR (1.5 mg/day), (4) group treated with meglumine antimoniate (treatment control group, 200 µg/mL, intralesional). No vehicle control group was included in the present study because castor oil additive is a nonionic surfactant commonly used as an excipient in pharmaceutical formulations, particularly in solubilizing poorly water-soluble drugs. It is widely used as an ingredient in cosmetics for its conditioning properties, based on occlusive action, reducing water loss, and having a nourishing effect on the skin, hair, and nails (Marwat et al. [2017]; Khairani et al. [2022]).
Hamsters were treated daily with 40 µL of the corresponding formulation for 2 weeks, applying it directly over the lesion, while hamsters treated with meglumine antimoniate received treatment three times per week for 4 weeks. Lesion area was measured every week for 90 days with an electronic digital caliper. The body weight gain or loss was supervised every 2 weeks during the study. At the end of the study, hamsters were euthanized with an i.p. injection of ketamine (600 mg/kg) and xylazine (30 mg/kg). The experiments were carried out under normal laboratory lighting conditions. After necropsy, biopsies from healed and unhealed ulcers were removed and fixed in 10% buffered formalin, processed, and stained with hematoxylin–eosin (H-E) stain for histopathology analysis. The changes were analyzed under a standard optical microscope.

**Q.** Which CC50 at 48 h [1] does the source give for `O=c1c(O)c(-c2ccc(O)c(O)c2)oc2cc(O)cc(O)c12` [Quercetin, quercetin] here?
**A.** > 662 µM

**Q.** And the EC50 [2]?
**A.** 21 ± 2.5 µM

**Q.** And the “SI (Selectivity Index = LC50/EC50)” value ([3]; LC50 U-937 / EC50 L. braziliensis amastigotes)?
**A.** > 20.6

**Q.** What about the EC50 ([3]; U-937, amastigote stage of L. braziliensis, read-out: in vitro antileishmanial activity (EC50 in mass units)) of the same compound?
**A.** 9.7 ± 0.6 µg/mL

**Q.** What about the EC50 ([3]; intracellular amastigotes of L. braziliensis in U-937 macrophages, 48 h, read-out: EC50 (Median Effective Concentration)) of the same compound?
**A.** 32 ± 2 µM

**Q.** What about the Leishmanicidal activity ([3]; class by EC50 on intracellular amastigotes of L. braziliensis) of the same compound?
**A.** High (high activity corresponds to EC50 values < 50 µM)

**Q.** And the treatment failures (L. braziliensis; topical daily for 15 days)?
**A.** No failures

**Q.** What about the “therapeutic response (hamsters cured)” value (L. braziliensis; topical in castor oil daily for 15 days, QUE 1 mg/day, CUR 1.5 mg/day, PIP 2.5 mg/day, followed 90 days) of the same compound?
**A.** 100%
